Experimental data as given in paper PMC6017193, “Structure-Based Discovery of a Series of 5H-Pyrrolo[2,3-b]pyrazine FGFR Kinase Inhibitors” (Molecules : A Journal of Synthetic Chemistry and Natural …, 2018).

Molecular target: T1, FGFR1 (Homo sapiens, UniProt P11362)
T1 construct: purchased Millipore
Assay: ELISA kinase assay, FGFR1 enzymatic activity
Format: biochemical
Conditions: for inhibition at 5 µM / inhibition at 10 µM / inhibition at 0.01 µM / inhibition at 0.1 µM / inhibition at 1 µM / FGFR1 Inhibition (%): mean of two separate experiments
Description: The effects of compounds on the activities of indicated (FGFR1 and c-Met) kinases were determined using enzyme-linked immunosorbent assays (ELISAs) with purified recombinant proteins. Briefly, 20 μg/mL poly (Glu, Tyr)4:1 (Sigma, St. Louis, MO, USA) was precoated in 96-well plates as a substrate. A 50-μL aliquot of 10 μmol/L ATP solution diluted in kinase reaction buffer (50 mmol/L HEPES (pH 7.4), 50 mmol/L MgCl2, 0.5 mmol/L MnCl2, 0.2 mmol/L Na3VO4, and 1 mmol/L DTT) was added to each well; 1 μL of various concentrations of compounds diluted in 1% DMSO (v/v) (Sigma) were then added to each reaction well. DMSO (1%, v/v) was used as the negative control. The kinase reaction was initiated by the addition of purified tyrosine kinase proteins FGFR1 (Millipore, Darmstadt, Germany) or c-Met (Millipore) diluted in 49 μL of kinase reaction buffer. After incubation for 60 min at 37 °C, the plate was washed three times with phosphate-buffered saline (PBS) containing 0.1% Tween 20 (T-PBS). Anti-phosphotyrosine (PY99) antibody (Sanra Cruz, Dallas, TX, USA) (100 μL; 1:500, diluted in 5 mg/mL bovine serum albumin (BSA) T-PBS) was then added. After a 30-min incubation at 37 °C, the plate was washed three times, and 100 μL of horseradish peroxidase-conjugated goat anti-mouse IgG (Calbiochem, Shanghai, China) (1:2000, diluted in 5 mg/mL BSA T-PBS) was added. The plate was then incubated at 37 °C for 30 min, and washed three times. A 100-μL aliquot of a solution containing 0.03% H2O2 and 2 mg/mL o-phenylenediamine in 0.1 mol/L citrate buffer (pH 5.5) was added. The reaction was terminated by the addition of 50 μL of 2 mol/L H2SO4 as the color changed, and the plate was analyzed using a multi-well spectrophotometer (SpectraMAX 190, Molecular Devices, Palo Alto, CA, USA) at 490 nm. The inhibition rate (%) was calculated using the following equation:IR = [1 − (A490/A490control)] × 100%.(1) where IR, A490, and A490control are the inhibition rate, the absorbance value of the tested compound at 490 nm, and the absorbance value of the negative control compound at 490 nm, respectively. The IC50 values were calculated from the inhibition curves in two separate experiments.

T1 sequence (P11362 22-822): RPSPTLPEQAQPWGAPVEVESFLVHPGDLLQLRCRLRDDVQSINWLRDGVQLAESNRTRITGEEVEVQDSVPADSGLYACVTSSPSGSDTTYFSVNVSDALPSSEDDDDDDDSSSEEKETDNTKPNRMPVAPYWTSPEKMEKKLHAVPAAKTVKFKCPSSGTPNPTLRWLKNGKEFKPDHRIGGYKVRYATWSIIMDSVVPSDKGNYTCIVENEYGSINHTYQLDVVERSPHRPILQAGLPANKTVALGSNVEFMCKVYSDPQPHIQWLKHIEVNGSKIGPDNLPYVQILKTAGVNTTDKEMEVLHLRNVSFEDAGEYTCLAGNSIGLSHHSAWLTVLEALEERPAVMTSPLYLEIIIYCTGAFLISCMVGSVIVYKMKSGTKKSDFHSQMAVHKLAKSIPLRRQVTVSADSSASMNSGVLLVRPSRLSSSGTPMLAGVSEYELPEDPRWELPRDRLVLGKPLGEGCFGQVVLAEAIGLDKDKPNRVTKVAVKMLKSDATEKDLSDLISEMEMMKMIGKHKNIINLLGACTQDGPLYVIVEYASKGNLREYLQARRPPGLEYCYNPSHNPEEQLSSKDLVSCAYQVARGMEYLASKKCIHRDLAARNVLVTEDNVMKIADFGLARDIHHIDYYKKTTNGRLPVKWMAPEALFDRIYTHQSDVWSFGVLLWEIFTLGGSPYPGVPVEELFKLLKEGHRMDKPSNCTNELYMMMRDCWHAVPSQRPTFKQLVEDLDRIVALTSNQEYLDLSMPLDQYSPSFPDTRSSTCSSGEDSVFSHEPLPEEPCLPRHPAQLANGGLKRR

Molecule | inhibition at 0.01 µM (0.01 μM (10 nM)) | inhibition at 0.1 µM (0.1 μM) | inhibition at 1 µM (1 μM) | other results
Cn1cc(-c2cnc3ccn(S(=O)(=O)c4c(Cl)nc5sccn45)c3n2)cn1 [Compound 9, 6-Chloro-5-((3-(1-methyl-1H-pyrazol-4-yl)-5H-pyrrolo[2,3-b]pyrazin-5-yl)sulfonyl)imidazo[2,1-b]thiazole] | – | – | – | inhibition at 5 µM: 83.7%; inhibition at 10 µM: 92.5%
COC(=O)Cn1cc(-c2cnc3ccn(S(=O)(=O)c4cn(CCF)cn4)c3n2)cn1 [Compound 19, Methyl 2-(4-(5-((1-(2-fluoroethyl)-1H-imidazol-4-yl)sulfonyl)-5H-pyrrolo[2,3-b]pyrazin-3-yl)-1H-pyrazol-1-yl)acetate] | 7.3% | 12% | 40.7% | –
CCC(=O)n1cc(-c2cnc3ccn(S(=O)(=O)c4cn(CCF)cn4)c3n2)cn1 [Compound 16, 1-(4-(5-((1-(2-Fluoroethyl)-1H-imidazol-4-yl)sulfonyl)-5H-pyrrolo[2,3-b]pyrazin-3-yl)-1H-pyrazol-1-yl)propan-1-one] | 15.1% | 55.8% | 94.6% | –
CC(C)Cn1cnc(S(=O)(=O)n2ccc3ncc(-c4cn[nH]c4)nc32)c1 [Compound 31, 5-((1-Isobutyl-1H-imidazol-4-yl)sulfonyl)-3-(1H-pyrazol-4-yl)-5H-pyrrolo[2,3-b]pyrazine] | 13.9% | 19.9% | 37.1% | –
CCOC(=O)C(C(=O)OCC)n1cc(-c2cnc3ccn(S(=O)(=O)c4cn(CCF)cn4)c3n2)cn1 [Compound 26, Diethyl 2-(4-(5-((1-(2-fluoroethyl)-1H-imidazol-4-yl)sulfonyl)-5H-pyrrolo[2,3-b]pyrazin-3-yl)-1H-pyrazol-1-yl)malonate] | 26.8% | 33.6% | 69% | –
CNC(=O)Cn1cc(-c2cnc3ccn(S(=O)(=O)c4cn(CCF)cn4)c3n2)cn1 [Compound 21, 2-(4-(5-((1-(2-Fluoroethyl)-1H-imidazol-4-yl)sulfonyl)-5H-pyrrolo[2,3-b]pyrazin-3-yl)-1H-pyrazol-1-yl)-N-methylacetamide] | 12.5% | 14.9% | 65.6% | –
CC(=O)Cn1cc(-c2cnc3ccn(S(=O)(=O)c4cn(CCF)cn4)c3n2)cn1 [Compound 18, 1-(4-(5-((1-(2-Fluoroethyl)-1H-imidazol-4-yl)sulfonyl)-5H-pyrrolo[2,3-b]pyrazin-3-yl)-1H-pyrazol-1-yl)propan-2-one] | 24.6% | 13.3% | 22.6% | –
O=S(=O)(c1cnc2cccnn12)n1ccc2ncc(-c3cn[nH]c3)nc21 [Compound 35, 5-(Imidazo[1,2-b]pyridazin-3-ylsulfonyl)-3-(1H-pyrazol-4-yl)-5H-pyrrolo[2,3-b]pyrazine] | 31.8% | 68.7% | 90.6% | –
O=S(=O)(c1cnn2cccnc12)n1ccc2ncc(-c3cn[nH]c3)nc21 [Compound 34, 3-(1H-Pyrazol-4-yl)-5-(pyrazolo[1,5-a]pyrimidin-3-ylsulfonyl)-5H-pyrrolo[2,3-b]pyrazine] | – | 26.4% | 73.9% | –
CC(=O)n1cc(-c2cnc3ccn(S(=O)(=O)c4cn(CCF)cn4)c3n2)cn1 [Compound 15, 1-(4-(5-((1-(2-fluoroethyl)-1H-imidazol-4-yl)sulfonyl)-5H-pyrrolo[2,3-b]pyrazin-3-yl)-1H-pyrazol-1-yl)ethan-1-one] | 35.9% | 25.9% | 70.9% | –
O=S(=O)(c1cn(CCF)cn1)n1ccc2ncc(-c3cnn(C4CC4)c3)nc21 [Compound 14, 3-(1-Cyclopropyl-1H-pyrazol-4-yl)-5-((1-(2-fluoroethyl)-1H-imidazol-4-yl)sulfonyl)-5H-pyrrolo[2,3-b]pyrazine] | 4.7% | 2.2% | 2.8% | FGFR1 activity (in words) (FGFR1 enzymatic activity, Table 3): lost the FGFR1 activity
Cn1cc(-c2cnc3ccn(S(=O)(=O)c4cn(CCF)cn4)c3n2)cn1 [Compound 12, 5-((1-(2-Fluoroethyl)-1H-imidazol-4-yl)sulfonyl)-3-(1-methyl-1H-pyrazol-4-yl)-5H-pyrrolo[2,3-b]pyrazine] | – | – | – | inhibition at 5 µM: 68.9%; inhibition at 10 µM: 89%
Cn1cnc(S(=O)(=O)n2ccc3ncc(-c4cnn(C)c4)nc32)c1 [Compound 11, 5-((1-Methyl-1H-imidazol-4-yl)sulfonyl)-3-(1-methyl-1H-pyrazol-4-yl)-5H-pyrrolo[2,3-b]pyrazine] | – | – | – | inhibition at 5 µM: 58.1%; inhibition at 10 µM: 86%
O=S(=O)(c1cn(CCF)cn1)n1ccc2ncc(-c3cnn(S(=O)(=O)C4CC4)c3)nc21 [Compound 24, 3-(1-(Cyclopropylsulfonyl)-1H-pyrazol-4-yl)-5-((1-(2-fluoroethyl)-1H-imidazol-4-yl)sulfonyl)-5H-pyrrolo[2,3-b]pyrazine] | 16.6% | 13.5% | 29.5% | –
CS(=O)(=O)n1cc(-c2cnc3ccn(S(=O)(=O)c4cn(CCF)cn4)c3n2)cn1 [Compound 23, 5-((1-(2-Fluoroethyl)-1H-imidazol-4-yl)sulfonyl)-3-(1-(methylsulfonyl)-1H-pyrazol-4-yl)-5H-pyrrolo[2,3-b]pyrazine] | 20.9% | 37.1% | 82.3% | –
Cn1cc(-c2cnc3cnn(S(=O)(=O)c4c(Cl)nc5sccn45)c3c2)cn1 [Compound 5, 6-chloro-5-((6-(1-methyl-1H-pyrazol-4-yl)-1H-pyrazolo[4,3-b]pyridin-1-yl)sulfonyl)imidazo[2,1-b]thiazole] | – | – | – | inhibition at 10 µM: > 50%
CC(C)n1cnc(S(=O)(=O)n2ccc3ncc(-c4cn[nH]c4)nc32)c1 [Compound 30] | 40.4% | 77.1% | 94.5% | –
CCOC(=O)Cn1cc(-c2cnc3ccn(S(=O)(=O)c4cn(CCF)cn4)c3n2)cn1 [Compound 20, Ethyl 2-(4-(5-((1-(2-fluoroethyl)-1H-imidazol-4-yl)sulfonyl)-5H-pyrrolo[2,3-b]pyrazin-3-yl)-1H-pyrazol-1-yl)acetate] | 7.2% | 5.4% | 49.6% | –
CNC(=O)Cn1cnc(S(=O)(=O)n2ccc3ncc(-c4cn[nH]c4)nc32)c1 [Compound 33, 2-(4-((3-(1H-Pyrazol-4-yl)-5H-pyrrolo[2,3-b]pyrazin-5-yl)sulfonyl)-1H-imidazol-1-yl)-N-methylacetamide] | 19.9% | 43.8% | 82.4% | –
Cn1cc(-c2cnc3ccn(S(=O)(=O)c4cnn5cccnc45)c3n2)cn1 [Compound 10, 3-(1-Methyl-1H-pyrazol-4-yl)-5-(pyrazolo[1,5-a]pyrimidin-3-ylsulfonyl)-5H-pyrrolo[2,3-b]pyrazine] | – | – | – | inhibition at 5 µM: 77%; inhibition at 10 µM: 91%
O=S(=O)(c1cn(C2CCCC2)cn1)n1ccc2ncc(-c3cn[nH]c3)nc21 [Compound 32, 5-((1-Cyclopentyl-1H-imidazol-4-yl)sulfonyl)-3-(1H-pyrazol-4-yl)-5H-pyrrolo[2,3-b]pyrazine] | 4.9% | 20.1% | 71.7% | –
COC(=O)C(C(=O)OC)n1cc(-c2cnc3ccn(S(=O)(=O)c4cn(CCF)cn4)c3n2)cn1 [Compound 25, Dimethyl 2-(4-(5-((1-(2-fluoroethyl)-1H-imidazol-4-yl)sulfonyl)-5H-pyrrolo[2,3-b]pyrazin-3-yl)-1H-pyrazol-1-yl)malonate] | 23.5% | 46.5% | 83% | –
CN(C)C(=O)Cn1cc(-c2cnc3ccn(S(=O)(=O)c4cn(CCF)cn4)c3n2)cn1 [Compound 22, 2-(4-(5-((1-(2-Fluoroethyl)-1H-imidazol-4-yl)sulfonyl)-5H-pyrrolo[2,3-b]pyrazin-3-yl)-1H-pyrazol-1-yl)-N,N-dimethylacetamide] | 0.4% | 2.5% | 15.3% | –
Methyl 2-(4-(5-((1-(2-fluoroethyl)-1H-imidazol-4-yl)sulfonyl)-5H-pyrrolo[2,3-b]pyrazin-3-yl)-1H-pyrazol-1-yl)acetate [Compound 17] | – | – | – | FGFR1 Inhibition (%) (0.01 μM (10 nM)): −3.3%; FGFR1 Inhibition (%) (0.1 μM): 15.6%; FGFR1 Inhibition (%) (1 μM): 56.8%
